CC(C)C[C@H](CN)CC(=O)O
solubility (mole fraction)
Conditions | in acetonitrile | in ethanol | in ethyl acetate | in isobutanol | in isopropanol | in methanol | in n-butanol | in n-propanol
278.15 K | 0.000572 | 0.00115 | 0.00164 | 0.00126 | 9.1e-05 | 0.00112 | 0.00093 | 0.00109
283.15 K | 0.000624 | 0.00149 | 0.00195 | 0.00136 | 0.000125 | 0.00153 | 0.00152 | 0.00144
288.15 K | 0.000695 | 0.00188 | 0.00237 | 0.00146 | 0.000163 | 0.00198 | 0.00213 | 0.00185
293.15 K | 0.00076 | 0.00235 | 0.00271 | 0.00159 | 0.000214 | 0.00242 | 0.00282 | 0.00241
298.15 K | 0.000821 | 0.00272 | 0.00331 | 0.00173 | 0.000253 | 0.00273 | 0.00354 | 0.00277
303.15 K | 0.000885 | 0.00321 | 0.00374 | 0.00184 | 0.000281 | 0.0033 | 0.00416 | 0.0032
308.15 K | 0.000931 | 0.00369 | 0.00429 | 0.00194 | 0.000314 | 0.00399 | 0.00487 | 0.00368
313.15 K | 0.000988 | 0.00424 | 0.00488 | 0.002 | 0.000362 | 0.00465 | 0.00551 | 0.00412
318.15 K | 0.00106 | 0.00501 | 0.00547 | 0.00209 | 0.000419 | 0.00542 | 0.00619 | 0.00466
323.15 K | 0.00113 | 0.00575 | 0.00589 | 0.00219 | 0.000461 | 0.00602 | 0.00677 | 0.00501
328.15 K | 0.00118 | 0.00634 | 0.00631 | 0.00226 | 0.000513 | 0.00671 | 0.00731 | 0.00542
333.15 K | 0.00123 | 0.00711 | 0.00674 | 0.00234 | 0.000585 | 0.00753 | 0.00793 | 0.00603

Reference: BigSolDB 2.1
